Reference: paper PMC8449129, “Single tracer-based protocol for broad-spectrum kinase profiling in live cells with NanoBRET” (STAR Protocols, 2021)

Key:
Experiment in all cases: cell-based
Parameters in all cases: NanoBRET live-cell target engagement; % occupancy from displacement of tracer K10 on NanoLuc-kinase fusions, mean n=3
Conditions in all cases: HEK293, read-out: % inhibition
BRSK1 = BRSK1 (Homo sapiens, UniProt Q8TDC3)
Protocol: (§1) • 18. Prepare 10× test compounds in OptiMEM • a. Dilute the test compound to 1000× in DMSO (or the test compound solvent). […] Add 10μL per well of 10× test compound or 10μL of the DMSO control to the 96-well plates containing cells with 1× tracer. Mix on orbital shaker for 15 s at 900 rpm. • 20. Incubate the plate at 37°C + 5% CO2 incubator for 2hr. Allow plate to cool to RT for ∼15 min, then proceed to NanoBRET^TM Assay section below. • 21. Immediately before the BRET measurements, prepare 3× Complete NanoBRET^TM Nano-Glo® Substrate in OptiMEM without serum or phenol red. […] Mix gently by inverting 5–10 times in a conical tube. (The final concentration of Extracellular NanoLuc inhibitor in the 3× solution is 60 μM, for a working concentration of 20 μM.) • a. Note: 3× solutions should be used within 1.5 h after preparation. • 22. […] Incubate 2–3 min at RT. Following addition of NanoBRET^TM Nano-Glo® Substrate, measure donor emission (e.g., 450 nm) and acceptor emission (e.g., 610 nm or 630 nm) using a NanoBRET™-compatible luminometer. Fractional occupancy Quantitation • 2. Determine Fractional Occupancy with the following equation; % Occupancy = [1 – (X – Z)/( Y – Z)]∗100 • Where: • X = BRET in the presence of the test compound and tracer, • Y = BRET in the presence of the 100% BRET Control (Tracer + DMSO) • Z = BRET for the Zero BRET Control, e.g., • a. BRET from the NanoLuc Control Vector • b. BRET from Kinase/NanoLuc fusion + saturating dose of control test compound.

CAMK2D = CAMK2D (Homo sapiens, UniProt Q13557)
Protocol: as §1

CDK14 = CDK14 (Homo sapiens, UniProt O94921)
Protocol: as §1

CDKL1 = CDKL1 (Homo sapiens, UniProt Q00532)
Protocol: as §1

CSNK1A1L = CSNK1A1L (Homo sapiens, UniProt Q8N752)
Protocol: as §1

FGFR3 = FGFR3 (Homo sapiens, UniProt P22607)
Protocol: as §1

IKBKE = IKBKE (Homo sapiens, UniProt Q14164)
Protocol: as §1

LIMK1 = LIMK1 (Homo sapiens, UniProt P53667)
Protocol: as §1

MAP3K10 = MAP3K10 (Homo sapiens, UniProt Q02779)
Protocol: as §1

MYLK4 = MYLK4 (Homo sapiens, UniProt Q86YV6)
Protocol: as §1

NEK5 = NEK5 (Homo sapiens, UniProt Q6P3R8)
Protocol: as §1

NIM1K = NIM1K (Homo sapiens, UniProt Q8IY84)
Protocol: as §1

PLK2 = PLK2 (Homo sapiens, UniProt Q9NYY3)
Protocol: as §1

PRKAA1 = PRKAA1 (Homo sapiens, UniProt Q13131)
Protocol: as §1

PRKACA = PRKACA (Homo sapiens, UniProt P17612)
Protocol: as §1

STK32B = STK32B (Homo sapiens, UniProt Q9NY57)
Protocol: as §1

STK4 = STK4 (Homo sapiens, UniProt Q13043)
Protocol: as §1

TEK = TEK (Homo sapiens, UniProt Q02763)
Protocol: as §1

Sequence of CSNK1A1L (Q8N752 whole entry): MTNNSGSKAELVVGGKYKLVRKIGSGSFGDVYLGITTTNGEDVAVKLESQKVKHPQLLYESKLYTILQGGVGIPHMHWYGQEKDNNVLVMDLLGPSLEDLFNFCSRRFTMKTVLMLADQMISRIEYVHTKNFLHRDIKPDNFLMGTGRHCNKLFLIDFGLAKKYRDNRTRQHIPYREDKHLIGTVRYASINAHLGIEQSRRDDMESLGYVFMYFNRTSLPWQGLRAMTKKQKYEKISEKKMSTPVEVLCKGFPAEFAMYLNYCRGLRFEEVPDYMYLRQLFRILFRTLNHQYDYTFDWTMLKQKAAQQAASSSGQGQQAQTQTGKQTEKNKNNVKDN
Sequence of IKBKE (Q14164 whole entry): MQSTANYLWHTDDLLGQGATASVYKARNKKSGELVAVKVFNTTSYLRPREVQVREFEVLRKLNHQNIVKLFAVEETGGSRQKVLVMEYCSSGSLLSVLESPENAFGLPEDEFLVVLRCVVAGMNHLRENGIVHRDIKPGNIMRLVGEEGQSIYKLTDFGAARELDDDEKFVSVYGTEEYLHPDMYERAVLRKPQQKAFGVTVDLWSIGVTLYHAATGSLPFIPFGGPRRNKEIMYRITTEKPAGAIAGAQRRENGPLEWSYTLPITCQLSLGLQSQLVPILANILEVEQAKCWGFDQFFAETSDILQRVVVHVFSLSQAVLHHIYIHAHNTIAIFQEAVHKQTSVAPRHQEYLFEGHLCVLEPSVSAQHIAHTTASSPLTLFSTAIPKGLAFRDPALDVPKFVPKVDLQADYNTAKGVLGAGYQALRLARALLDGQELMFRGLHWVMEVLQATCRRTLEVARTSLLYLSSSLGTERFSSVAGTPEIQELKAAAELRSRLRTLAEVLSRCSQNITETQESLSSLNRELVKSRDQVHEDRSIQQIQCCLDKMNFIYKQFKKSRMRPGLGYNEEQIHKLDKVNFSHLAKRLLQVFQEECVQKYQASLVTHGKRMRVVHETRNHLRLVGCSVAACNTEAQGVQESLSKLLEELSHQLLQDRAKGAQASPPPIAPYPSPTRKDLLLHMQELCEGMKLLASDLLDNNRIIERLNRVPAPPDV
Sequence of TEK (Q02763 whole entry): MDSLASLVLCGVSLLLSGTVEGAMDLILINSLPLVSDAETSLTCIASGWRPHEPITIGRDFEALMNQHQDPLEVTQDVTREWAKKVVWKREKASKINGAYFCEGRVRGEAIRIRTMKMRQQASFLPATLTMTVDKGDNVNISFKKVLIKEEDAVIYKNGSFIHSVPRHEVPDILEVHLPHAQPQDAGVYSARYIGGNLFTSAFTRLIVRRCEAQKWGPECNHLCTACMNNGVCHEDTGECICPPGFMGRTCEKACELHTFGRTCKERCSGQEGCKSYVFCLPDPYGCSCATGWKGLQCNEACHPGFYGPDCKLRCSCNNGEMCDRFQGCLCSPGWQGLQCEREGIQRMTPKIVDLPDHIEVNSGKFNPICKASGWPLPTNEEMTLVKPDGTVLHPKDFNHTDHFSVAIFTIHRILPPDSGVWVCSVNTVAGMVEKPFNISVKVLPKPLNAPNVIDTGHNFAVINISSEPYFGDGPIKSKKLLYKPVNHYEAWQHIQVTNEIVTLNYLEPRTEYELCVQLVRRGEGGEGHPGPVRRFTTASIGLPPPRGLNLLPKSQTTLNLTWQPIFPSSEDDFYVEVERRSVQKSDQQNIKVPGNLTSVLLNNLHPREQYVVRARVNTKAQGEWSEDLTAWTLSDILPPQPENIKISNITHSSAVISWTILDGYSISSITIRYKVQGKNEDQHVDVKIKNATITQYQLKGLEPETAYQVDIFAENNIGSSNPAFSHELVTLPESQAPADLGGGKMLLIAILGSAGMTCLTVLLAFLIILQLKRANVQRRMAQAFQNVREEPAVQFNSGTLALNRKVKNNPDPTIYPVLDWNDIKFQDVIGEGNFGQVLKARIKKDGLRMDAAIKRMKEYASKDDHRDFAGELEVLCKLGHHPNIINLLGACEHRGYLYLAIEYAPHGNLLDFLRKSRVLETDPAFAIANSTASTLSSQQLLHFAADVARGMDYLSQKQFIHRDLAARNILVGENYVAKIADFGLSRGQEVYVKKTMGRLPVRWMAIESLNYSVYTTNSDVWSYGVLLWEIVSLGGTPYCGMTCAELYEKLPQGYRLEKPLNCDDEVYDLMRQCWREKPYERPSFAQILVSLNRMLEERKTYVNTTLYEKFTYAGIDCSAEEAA
Sequence of CDKL1 (Q00532 whole entry): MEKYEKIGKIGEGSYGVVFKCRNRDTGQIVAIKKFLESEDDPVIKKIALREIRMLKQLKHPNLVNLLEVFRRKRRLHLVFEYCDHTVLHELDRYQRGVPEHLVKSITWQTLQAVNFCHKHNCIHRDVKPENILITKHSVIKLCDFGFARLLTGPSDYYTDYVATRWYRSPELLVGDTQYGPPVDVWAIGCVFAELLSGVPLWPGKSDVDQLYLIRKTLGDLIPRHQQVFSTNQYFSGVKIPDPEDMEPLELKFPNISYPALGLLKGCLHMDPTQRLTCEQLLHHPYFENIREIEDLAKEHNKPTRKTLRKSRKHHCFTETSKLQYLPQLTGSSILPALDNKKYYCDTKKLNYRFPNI
Sequence of CAMK2D (Q13557 whole entry): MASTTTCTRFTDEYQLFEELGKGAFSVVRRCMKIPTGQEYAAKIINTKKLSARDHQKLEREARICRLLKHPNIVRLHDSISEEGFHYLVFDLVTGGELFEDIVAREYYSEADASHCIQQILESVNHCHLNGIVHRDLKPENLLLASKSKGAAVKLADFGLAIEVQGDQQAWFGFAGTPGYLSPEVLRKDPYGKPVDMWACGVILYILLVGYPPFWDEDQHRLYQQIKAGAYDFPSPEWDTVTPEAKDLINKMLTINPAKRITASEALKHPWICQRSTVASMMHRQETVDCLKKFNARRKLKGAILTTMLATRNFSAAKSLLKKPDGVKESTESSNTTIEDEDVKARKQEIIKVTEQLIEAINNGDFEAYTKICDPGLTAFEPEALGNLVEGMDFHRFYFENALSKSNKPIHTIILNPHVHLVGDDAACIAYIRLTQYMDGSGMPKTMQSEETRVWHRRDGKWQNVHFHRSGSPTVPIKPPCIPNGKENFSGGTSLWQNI
Sequence of MYLK4 (Q86YV6 whole entry): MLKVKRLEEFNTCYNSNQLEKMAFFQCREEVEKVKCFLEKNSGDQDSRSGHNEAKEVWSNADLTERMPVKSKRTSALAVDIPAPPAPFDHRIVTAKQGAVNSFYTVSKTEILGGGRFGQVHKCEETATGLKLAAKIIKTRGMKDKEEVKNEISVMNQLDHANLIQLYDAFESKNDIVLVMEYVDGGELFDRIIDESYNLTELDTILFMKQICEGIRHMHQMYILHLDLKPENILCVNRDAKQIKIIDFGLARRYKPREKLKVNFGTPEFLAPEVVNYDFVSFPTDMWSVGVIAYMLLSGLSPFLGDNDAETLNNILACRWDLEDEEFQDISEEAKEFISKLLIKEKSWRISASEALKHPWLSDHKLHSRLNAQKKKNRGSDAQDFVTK
Sequence of PRKAA1 (Q13131 whole entry): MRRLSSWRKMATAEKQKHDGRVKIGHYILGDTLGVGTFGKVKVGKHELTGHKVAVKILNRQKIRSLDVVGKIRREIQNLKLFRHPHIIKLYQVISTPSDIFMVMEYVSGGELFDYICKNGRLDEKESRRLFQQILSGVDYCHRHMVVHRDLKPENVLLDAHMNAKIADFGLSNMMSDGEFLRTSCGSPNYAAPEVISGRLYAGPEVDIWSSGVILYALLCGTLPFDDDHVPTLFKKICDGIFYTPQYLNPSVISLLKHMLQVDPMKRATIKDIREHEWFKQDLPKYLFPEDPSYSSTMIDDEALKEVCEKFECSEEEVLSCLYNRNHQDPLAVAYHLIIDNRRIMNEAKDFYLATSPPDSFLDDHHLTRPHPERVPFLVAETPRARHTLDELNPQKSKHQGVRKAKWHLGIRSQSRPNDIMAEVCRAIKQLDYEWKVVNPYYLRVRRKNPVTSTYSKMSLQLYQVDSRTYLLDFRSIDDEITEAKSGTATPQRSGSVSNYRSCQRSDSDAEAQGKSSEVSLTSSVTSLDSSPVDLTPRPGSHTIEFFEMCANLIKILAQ
Sequence of PRKAA1 (P54619 whole entry partner): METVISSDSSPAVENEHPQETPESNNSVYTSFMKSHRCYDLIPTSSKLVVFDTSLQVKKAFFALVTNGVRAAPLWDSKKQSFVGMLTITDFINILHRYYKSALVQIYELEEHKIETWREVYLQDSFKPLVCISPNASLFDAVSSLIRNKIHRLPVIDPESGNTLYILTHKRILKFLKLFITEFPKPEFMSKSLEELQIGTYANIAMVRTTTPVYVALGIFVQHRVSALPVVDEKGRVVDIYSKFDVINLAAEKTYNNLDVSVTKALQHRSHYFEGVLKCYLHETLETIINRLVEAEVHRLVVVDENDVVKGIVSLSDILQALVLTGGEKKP
Sequence of PRKAA1 (Q9Y478 whole entry partner): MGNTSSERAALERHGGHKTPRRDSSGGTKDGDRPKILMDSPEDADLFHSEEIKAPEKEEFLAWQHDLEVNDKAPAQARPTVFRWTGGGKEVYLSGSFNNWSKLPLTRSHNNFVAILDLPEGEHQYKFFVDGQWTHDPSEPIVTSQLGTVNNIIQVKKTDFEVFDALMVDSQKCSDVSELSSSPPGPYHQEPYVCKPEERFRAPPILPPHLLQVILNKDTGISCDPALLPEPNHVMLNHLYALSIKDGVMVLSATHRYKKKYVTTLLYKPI
Sequence of STK32B (Q9NY57 whole entry): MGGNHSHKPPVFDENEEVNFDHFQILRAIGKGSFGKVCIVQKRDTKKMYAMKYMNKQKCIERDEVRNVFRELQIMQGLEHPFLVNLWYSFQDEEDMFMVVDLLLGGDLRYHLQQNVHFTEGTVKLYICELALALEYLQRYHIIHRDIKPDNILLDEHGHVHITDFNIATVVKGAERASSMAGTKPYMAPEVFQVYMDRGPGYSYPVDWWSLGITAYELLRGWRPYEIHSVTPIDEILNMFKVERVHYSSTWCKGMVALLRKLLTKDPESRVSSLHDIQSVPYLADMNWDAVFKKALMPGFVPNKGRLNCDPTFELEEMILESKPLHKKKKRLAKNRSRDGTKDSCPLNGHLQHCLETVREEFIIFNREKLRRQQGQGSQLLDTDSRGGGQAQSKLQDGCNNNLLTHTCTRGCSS

inhibition at 1 µM (BRSK1): -1% | inhibition at 1 µM (CAMK2D): 3% | inhibition at 1 µM (CDK14): 0% | inhibition at 1 µM (CDKL1): 2% | inhibition at 1 µM (CSNK1A1L): -6% | inhibition at 1 µM (FGFR3): 14% | inhibition at 1 µM (IKBKE): 21% | inhibition at 1 µM (LIMK1): 29% | inhibition at 1 µM (MAP3K10): -1% | inhibition at 1 µM (MYLK4): -8% | inhibition at 1 µM (NEK5): -6% | inhibition at 1 µM (NIM1K): -3% | inhibition at 1 µM (PLK2): 4% | inhibition at 1 µM (PRKAA1): -1% | inhibition at 1 µM (PRKACA): -1% | inhibition at 1 µM (STK32B): -1% | inhibition at 1 µM (STK4): 11% | inhibition at 1 µM (TEK): 37%
Compound: C[C@@H](Oc1cc(-c2cnn(C3CCNCC3)c2)cnc1N)c1c(Cl)ccc(F)c1Cl [crizotinib]
